Test results taken from paper PMC10384408, “Anticancer Tungstenocenes with a Diverse Set of (O,O–), (O,S–) and (O,N–) Chelates—A Detailed Biological Study Using an Improved Evaluation via 3D Spheroid Models” (Pharmaceutics, 2023).

What was measured:
HCT116 spheroids [1] = test: Spheroid growth, HCT116; format: cell-based, human; conditions: 10 µM, 96 h treatment
Experimental: (§1) For growing multicellular tumor spheroids, 400 HCT116, 400 HT29 or 800 MCF-7 cells per well were plated into round-bottom ultra-low attachment 96-well plates (Corning, Glendale, AZ, USA) in the media described above and incubated at 37 °C for 96 h. Spheroids were treated with 10 µM of the two most cytotoxic compounds 3 and 4 for another 96 h. The diameters of the spheroids were measured with Cell^F software under a CKX41 Olympus microscope before treatment and in constant daily intervals over the 96 h treatment period. For statistical analysis the t-test with Welsh’s correction was implemented in GraphPad Prism software (Version 6.01).

HT29 spheroids = test: Spheroid growth, HT29; format: cell-based, human; conditions: 10 µM, 96 h treatment
Experimental: as §1

MCF-7 spheroids = test: Spheroid growth, MCF-7; format: cell-based, human; conditions: 10 µM, 96 h treatment
Experimental: as §1

HCT116 spheroids [2] = test: KI67 immunofluorescence staining of cryo-sectioned spheroids; format: cell-based, human; conditions: 72 h; for KI67+ cells: untreated control 38.1 ± 7.3 %
Experimental: Spheroids were grown and cryosectioned, as described in the section above. For immunofluorescence staining the samples were fixed with 4% PFA (in PBS) for 15 min. The slides were washed with PBS before permeabilization with 0.1% Triton-X (Sigma-Aldrich, Steinheim, Germany) for 10 min. After three times washing with PBS the samples were stained for 45 min with 10% goat serum (G9023, Sigma-Aldrich) und 5% BSA for avoiding non-specific antibody binding. After one washing step a primary antibody against Ki67 (#9129, Cell Signaling Technology) was applied and samples incubated overnight at 4 °C. On the next day, slides were washed with PBS and incubated with goat anti-rabbit Alexa Fluor 594 (#8889 Cell Signaling Technology) for 1 h at room temperature in the dark, followed by two washing steps with PBS. Slides were mounted with ProlonGold Antifade Reagent with DAPI (Invitrogen, Thermo Fisher) and analyzed with a confocal laser scanning microscope Zeiss LSM800 (Zeiss, Jena, Germany). Images were processed with Zen software (Zeiss). For fluorescence signal intensities data extraction ImageJ/Fiji1.46 was used. For quantification, the maximum signal intensity of the KI67^+ cells was evaluated relative to the untreated control. For statistical analysis the t-test with Welsh’s correction was implemented in GraphPad Prism software (Version 6.01).

pUC19 plasmid = test: Electrophoretic dsDNA plasmid assay; format: biochemical; conditions: 50 µM, up to 6 h, 37 °C
Experimental: An amount of 400 ng of the pUC19 plasmid (2686 bp, New England Biolabs, Ipswich, MA, USA) was incubated with the test compounds (50 µM). Stock solutions of the test compounds were prepared in MilliQ water. The samples were incubated for different intervals (15 min to 6 h) with continuous shaking at 37 °C. Following the incubation time, 4 µL aliquots of 6 × DNA loading dye (Thermo Fisher, Kandel, Germany) were added to the 20 µL DNA samples. Electrophoresis was performed in a 1% agarose gel in 1 × TBE buffer, started at 60 V for 5 min and continued at 120 V for 90 min. Ethidium bromide (EtBr, Serva Electrophoresis GmbH, Heidelberg, Germany) staining was conducted in 1 × TBE (0.75 µg/mL) for 20 min. Images were taken by the GelDoc Imaging System Fusion F×7 (Vilber Lourmat, Eberhardzell, Germany). For quantification ImageJ/Fiji1.46 was used.

[3] = Cell-free DCF fluorescence quenching assay
Experimental: To verify interactions of complex 4 with the fluorescence of DCF (2′,7′-dichlorofluorescein, Sigma-Aldrich), a fluorescence quenching assay was performed. For this purpose, DCF was dissolved in abs. ethanol (Sigma-Aldrich), diluted in phenol-red-free MEM (1% FBS) to 5 µM and complex 4 dissolved in DMF, diluted to 20 and 200 µM in the same medium. Furthermore, two combinations of 5 µM DCF with 20 and 200 µM of complex 4 were prepared. The fluorescence intensity of the substances alone and their combinations were measured (excitation: 485/20 nm, emission: 516/20 nm) in 10 min intervals with the Synergy HT reader (BioTek) over 2 h.

HT29 cells = conditions: 200 µM
MCF-7 cells = conditions: 200 µM

F[P-](F)(F)(F)(F)F.O=c1c([O-])c(-c2ccc(Cl)cc2)oc2ccccc12.[W+4].c1cc[cH-]c1.c1cc[cH-]c1 [Compound 3, Bis(η^5-cyclopentadienyl)[2-(4-chlorophenyl)-3-(oxo-κO)-4(H)-chromen-4-oato-κO]tungsten(IV) hexafluorophosphate]
spheroid growth (HCT116 spheroids [1]): markedly reduced growth
spheroid growth (HT29 spheroids): completely stop spheroid growth
spheroid growth (MCF-7 spheroids): completely stop spheroid growth
reduction in number of KI67+ cells relative to untreated control (HCT116 spheroids [2]; 20 µM): 2.4 fold
KI67+ cells (HCT116 spheroids [2]; 20 µM): 15.8 ± 2.8%
interaction with plasmid dsDNA (pUC19 plasmid): showing the ability to induce DNA nicks

F[P-](F)(F)(F)(F)F.[O-]c1c(-c2ccc(Cl)cc2)oc2ccccc2c1=S.[W+4].c1cc[cH-]c1.c1cc[cH-]c1 [Compound 4, Bis(η^5-cyclopentadienyl)[2-(4-chlorophenyl)-3-(oxo-κO)-4(H)-chromen-4-thionato-κS]tungsten(IV) hexafluorophosphate]
spheroid growth (HCT116 spheroids [1]): completely stopped spheroid growth
spheroid growth (HT29 spheroids): completely stop spheroid growth
spheroid growth (MCF-7 spheroids): completely stop spheroid growth
reduction in number of KI67+ cells relative to untreated control (HCT116 spheroids [2]; 15 µM): 2 fold
KI67+ cells (HCT116 spheroids [2]; 15 µM): 19.1 ± 1.3%
lower fluorescence intensity relative to DCF (5 µM) alone ([3]; DCF 5 µM + complex 20 µM): 36.8%
lower fluorescence intensity relative to DCF (5 µM) alone ([3]; DCF 5 µM + complex 200 µM): 77.2%

F[P-](F)(F)(F)(F)F.O=C([O-])c1ccccn1.[W+4].c1cc[cH-]c1.c1cc[cH-]c1 [Compound 5, Bis(η^5-cyclopentadienyl)[2-(carboxylato-κO)-pyridine-κN]tungsten(IV) hexafluorophosphate]
viable cells [%] AV- / PI- (HT29 cells): 91.5 ± 8.9%
viable cells [%] AV- / PI- (MCF-7 cells): 86.6 ± 7.6%

Cc1cc(=S)c([O-])co1.F[P-](F)(F)(F)(F)F.[W+4].c1cc[cH-]c1.c1cc[cH-]c1 [Compound 8, Bis(η^5-cyclopentadienyl)[2-methyl-5-(oxo-κO)-pyran-4-(1H)-thionato-κS] tungsten(IV) hexafluorophosphate]
single-strand breaks (sc form to oc form) (pUC19 plasmid): 15 ± 2%
